We go through 6 substances from patent publication US11976098B2, “Cooked millet prolamin peptide for inhibiting alpha-amylase and alpha-glucosidase” (China Agricultural University, priority 2022, dated 2024).

This assay relates to α-glucosidase. As to the kind of experiment: In vitro α-glucosidase inhibitory activity (PNPG, 405 nm). The assay is classed as biochemical. The note with it: sample 0.5%, 37° C., pH 6.8. As to the method:
The method for determining α-glucosidase activity is as follows: First, the solution of substrate 4-Nitrophenyl […] (PNPG) with a concentration of 1.505 mg/mL (5 mmol/L of PNPG dissolved in 0.1 mol/L phosphate buffer with a pH of 6.8) was prepared, a Na2CO3 solution with a concentration of 0.2 mol/L was prepared, and α-glucosidase solution (0.8 U/ml of α-glucosidase dissolved in 0.1 mol/L phosphate buffer with a pH of 6.8) was prepared. After the solutions were prepared, the following two groups were set for determination: [table] After preparing according to the above table, the resulting solution was shaken in a water bath at 37° C. for 10 min, followed by adding 100 μL of enzyme solution and continuing to shake in the water bath at 37° C. for 10 min. Finally, 50 μL of Na2CO3 solution was added, and the absorbance was measured at 405 nm. The formula for calculating the α-glucosidase inhibition rate is as follows: [formula]
Substance “AGAGPQGRP (The sequence is synthetized) [SEQ ID NO: 2, small peptide screened from cooked millet prolamin]” came in with a α-glucosidase inhibition rate of 31.57%. In turn, “FALQGAAFLGSA (The sequence is synthetized) [SEQ ID NO: 3, small peptide screened from cooked millet prolamin]” had a α-glucosidase inhibition rate of 17.67%.

“KAHAALGAK (The sequence is synthetized) [SEQ ID NO: 6, small peptide screened from cooked millet prolamin]” registered a α-glucosidase inhibition rate of 13.77%. Regarding “KTGSGAEGMHGGK (The sequence is synthetized) [SEQ ID NO: 5, small peptide screened from cooked millet prolamin]”, the α-glucosidase inhibition rate was 15.64%.

In the case of “QQLRPF (The sequence is synthetized) [SEQ ID NO: 1, small peptide screened from cooked millet prolamin]”, the α-glucosidase inhibition rate is 32.67%. “QQQQLLR (The sequence is synthetized) [SEQ ID NO: 4, small peptide screened from cooked millet prolamin]” had a α-glucosidase inhibition rate of 15.94%.
